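Compound exposure: 48 hours, 5 concentrations, 96-well plates. Abbreviation: GI50, concentration required for 50% inhibition of growth.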 Activity calls are given as the source filed them. No stated cut-off is given here; in the data, active = GI50 up to about 1.1 µM and inactive = higher.
Experiments:
Experiment in all cases: inhibition of tumour cell growth, NCI panel, 48 h
SF-295 = system: SF-295
DU-145 = system: DU-145
NCI-H460 = system: NCI-H460
SK-MEL-5 = system: SK-MEL-5
SNB-78 = system: SNB-78
MDA-N = system: MDA-N
OVCAR-5 = system: OVCAR-5
HCT-116 = system: HCT-116
HOP-18 = system: HOP-18
ACHN = system: ACHN
EKVX = system: EKVX
DLD-1 = system: DLD-1
MOLT-4 = system: MOLT-4
SK-OV-3 = system: SK-OV-3
RXF 393 = system: RXF 393
RXF 631 = system: RXF 631
M19-MEL = system: M19-MEL
HL-60 = system: HL-60
SNB-19 = system: SNB-19
KM-20L2 = system: KM-20L2
NCI-H226 = system: NCI-H226
HT-29 = system: HT-29
BT-549 = system: BT-549
NCI-H522 = system: NCI-H522
IGROV-1 = system: IGROV-1
K562 = system: K562
HCT-15 = system: HCT-15
SR = system: SR
PC-3 = system: PC-3
OVCAR-4 = system: OVCAR-4
U-251 = system: U-251
A498 = system: A498
SF-539 = system: SF-539
SK-MEL-2 = system: SK-MEL-2
786-0 = system: 786-0
HCC 2998 = system: HCC 2998
Hs-578T = system: Hs-578T
MCF7 = system: MCF7
UACC-62 = system: UACC-62
NCI-H23 = system: NCI-H23
SK-MEL-28 = system: SK-MEL-28
HOP-92 = system: HOP-92
MDA-MB-435 = system: MDA-MB-435
NCI/ADR-RES = system: NCI/ADR-RES
OVCAR-3 = system: OVCAR-3
COLO 205 = system: COLO 205
XF498 = system: XF498
Malme-3M = system: Malme-3M
DMS-273 = system: DMS-273
CAKI-1 = system: CAKI-1
TK-10 = system: TK-10
HOP-62 = system: HOP-62
UO-31 = system: UO-31
CCRF-CEM = system: CCRF-CEM
SW-620 = system: SW-620
LOX IMVI = system: LOX IMVI
DMS-114 = system: DMS-114
SF-268 = system: SF-268
RPMI-8226 = system: RPMI-8226
UACC-257 = system: UACC-257
SN12C = system: SN12C
M14 = system: M14
OVCAR-8 = system: OVCAR-8
SNB-75 = system: SNB-75
MDA-MB-231 = system: MDA-MB-231
KM12 = system: KM12
LXFL 529 = system: LXFL 529
A549 = system: A549

## O=C1/C(=C/c2ccc(O)cc2)CCC1CNc1ccc(Cl)cc1 (stereo not drawn)
SF-295
  GI50: 2.88 µM (inactive)
DU-145
  GI50: 13.3 µM (inactive)
NCI-H460
  GI50: 4.15 µM (inactive)
SK-MEL-5
  GI50: 4.66 µM (inactive)
SNB-78
  GI50: 12.5 µM (inactive)
MDA-N
  GI50: 6.53 µM (inactive)
OVCAR-5
  GI50: 10.1 µM (inactive)
HCT-116
  GI50: 1.38 µM (inactive)
HOP-18
  GI50: 6.08 µM (inactive)
ACHN
  GI50: 0.76 µM (active)
EKVX
  GI50: 6.61 µM (inactive)
DLD-1
  GI50: 0.912 µM (active)
MOLT-4
  GI50: 1.71 µM (inactive)
SK-OV-3
  GI50: 5.14 µM (inactive)
RXF 393
  GI50: 6.31 µM (inactive)
RXF 631
  GI50: 8.89 µM (inactive)
M19-MEL
  GI50: 1.79 µM (inactive)
HL-60
  GI50: 0.861 µM (active)
SNB-19
  GI50: 15.2 µM (inactive)
KM-20L2
  GI50: 0.579 µM (active)
NCI-H226
  GI50: 12.6 µM (inactive)
HT-29
  GI50: 1.53 µM (inactive)
BT-549
  GI50: 12.6 µM (inactive)
NCI-H522
  GI50: 0.552 µM (active)
IGROV-1
  GI50: 3.21 µM (inactive)
K562
  GI50: 0.25 µM (active)
HCT-15
  GI50: 1.3 µM
SR
  GI50: 0.914 µM (active)
PC-3
  GI50: 1.42 µM (inactive)
OVCAR-4
  GI50: 2.96 µM (inactive)
U-251
  GI50: 5.7 µM (inactive)
A498
  GI50: 15 µM (inactive)
SF-539
  GI50: 6.37 µM (inactive)
SK-MEL-2
  GI50: 14.4 µM (inactive)
786-0
  GI50: 1.83 µM (inactive)
HCC 2998
  GI50: 3.93 µM (inactive)
Hs-578T
  GI50: 17.7 µM (inactive)
MCF7
  GI50: 1.34 µM (inactive)
UACC-62
  GI50: 0.367 µM (active)
NCI-H23
  GI50: 5.9 µM (inactive)
SK-MEL-28
  GI50: 9.95 µM (inactive)
HOP-92
  GI50: 14.7 µM (inactive)
MDA-MB-435
  GI50: 3.61 µM (inactive)
NCI/ADR-RES
  GI50: 5.45 µM (inactive)
OVCAR-3
  GI50: 2.28 µM (inactive)
COLO 205
  GI50: 1.19 µM (inactive)
XF498
  GI50: 2.7 µM (inactive)
Malme-3M
  GI50: 4.28 µM (inactive)
DMS-273
  GI50: 0.836 µM (active)
CAKI-1
  GI50: 1.55 µM (inactive)
TK-10
  GI50: 1.72 µM (inactive)
HOP-62
  GI50: 7.43 µM (inactive)
UO-31
  GI50: 3.01 µM (inactive)
CCRF-CEM
  GI50: 0.624 µM (active)
SW-620
  GI50: 1.37 µM (inactive)
LOX IMVI
  GI50: 0.27 µM (active)
DMS-114
  GI50: 1.31 µM (inactive)
SF-268
  GI50: 3.2 µM (inactive)
RPMI-8226
  GI50: 0.755 µM (active)
UACC-257
  GI50: 3.05 µM (inactive)
SN12C
  GI50: 3.94 µM (inactive)
M14
  GI50: 0.643 µM (active)
OVCAR-8
  GI50: 1.38 µM (inactive)
SNB-75
  GI50: 15.6 µM (inactive)
MDA-MB-231
  GI50: 3.04 µM (inactive)
KM12
  GI50: 0.895 µM (active)
LXFL 529
  GI50: 0.357 µM (active)
A549
  GI50: 7.01 µM (inactive)

— ChEMBL document CHEMBL1201862, “PubChem BioAssay data set” (2004)
